Measurements published in ChEMBL document CHEMBL5030535, “Conjugates Derived from Lapatinib Derivatives with Cancer Cell Stemness Inhibitors Effectively Reversed Drug Resistance in Triple-Negative Breast Cancer” (J Med Chem, 2021).
Calls of active or inactive are those of the source. The rule behind the calls is not given here.

Tests used:
MCF7 = assay: Antiproliferative activity against human MCF7 cells assessed as inhibition of cell growth measured after 72 hrs by MTT assay; format: functional, cell-based; settings: MCF7, 72 h
MDA-MB-231 [1] = assay: Antiproliferative activity against human MDA-MB-231 cells assessed as inhibition of cell growth measured after 72 hrs by MTT assay; format: functional, cell-based; settings: MDA-MB-231, 72 h
MDA-MB-231 [2] = assay: Antiproliferative activity against human drug tolerant MDA-MB-231/lapatinib cells assessed as inhibition of cell growth in measured after 72 hrs by MTT assay; format: functional, cell-based; settings: MDA-MB-231, 72 h
HUVEC = assay: Antiproliferative activity against human HUVEC cells assessed as inhibition of cell growth in measured after 72 hrs by MTT assay; format: cell-based
MDA-MB-231 [3] = assay: Inhibition of cell stemness in human drug-tolerant MDA-MB-231/lapatinib cells assessed as inhibition of CD44+/CD24- expression at 20 uM after 24 hrs by flow cytometry analysis; format: functional
[4] = Resistant factor, ratio of IC50 for antiproliferative activity against drug-tolerant human MDA-MB-231 cells to IC50 for human MDA-MB-231 cells; format: functional
[5] = Octanol/water partition coefficient, log P of the compound by shake flask method based thermodynamic solubility assay; format: physicochemical
MDA-MB-231 [6] = assay: Induction of apoptosis in drug-tolerant human MDA-MB-231 cells/lapatinib cells assessed as apoptotic rate at 20 uM measured after 24 hrs by flow cytometry; format: functional
MDA-MB-231 [7] = assay: Induction apoptosis in MDA-MB-231/ lapatinib cells assessed as apoptotic cells at 20 uM measured after 24 hrs by propidium iodide staining based flow cytometric analysis; format: functional, cell-based; settings: Homo sapiens
MDA-MB-231 [8] = assay: Cell cycle arrest in human MDA-MB-231 cells assessed as accumulation at G0-G1phase at 20 uM incubated for 24 hrs by PI staining based flow cytometry; format: functional
MDA-MB-231 [9] = assay: Cell cycle arrest in human drug-tolerant MDA-MB-231/lapatinib cells assessed as accumulation at G0-G1phase at 20 uM incubated for 24 hrs by PI staining based flow cytometry; format: functional
[10] = molecular target: T1, Epidermal growth factor receptor (Homo sapiens, UniProt P00533); assay: Inhibition of exogenous EGFR (unknown origin)
T1 sequence (P00533 whole entry): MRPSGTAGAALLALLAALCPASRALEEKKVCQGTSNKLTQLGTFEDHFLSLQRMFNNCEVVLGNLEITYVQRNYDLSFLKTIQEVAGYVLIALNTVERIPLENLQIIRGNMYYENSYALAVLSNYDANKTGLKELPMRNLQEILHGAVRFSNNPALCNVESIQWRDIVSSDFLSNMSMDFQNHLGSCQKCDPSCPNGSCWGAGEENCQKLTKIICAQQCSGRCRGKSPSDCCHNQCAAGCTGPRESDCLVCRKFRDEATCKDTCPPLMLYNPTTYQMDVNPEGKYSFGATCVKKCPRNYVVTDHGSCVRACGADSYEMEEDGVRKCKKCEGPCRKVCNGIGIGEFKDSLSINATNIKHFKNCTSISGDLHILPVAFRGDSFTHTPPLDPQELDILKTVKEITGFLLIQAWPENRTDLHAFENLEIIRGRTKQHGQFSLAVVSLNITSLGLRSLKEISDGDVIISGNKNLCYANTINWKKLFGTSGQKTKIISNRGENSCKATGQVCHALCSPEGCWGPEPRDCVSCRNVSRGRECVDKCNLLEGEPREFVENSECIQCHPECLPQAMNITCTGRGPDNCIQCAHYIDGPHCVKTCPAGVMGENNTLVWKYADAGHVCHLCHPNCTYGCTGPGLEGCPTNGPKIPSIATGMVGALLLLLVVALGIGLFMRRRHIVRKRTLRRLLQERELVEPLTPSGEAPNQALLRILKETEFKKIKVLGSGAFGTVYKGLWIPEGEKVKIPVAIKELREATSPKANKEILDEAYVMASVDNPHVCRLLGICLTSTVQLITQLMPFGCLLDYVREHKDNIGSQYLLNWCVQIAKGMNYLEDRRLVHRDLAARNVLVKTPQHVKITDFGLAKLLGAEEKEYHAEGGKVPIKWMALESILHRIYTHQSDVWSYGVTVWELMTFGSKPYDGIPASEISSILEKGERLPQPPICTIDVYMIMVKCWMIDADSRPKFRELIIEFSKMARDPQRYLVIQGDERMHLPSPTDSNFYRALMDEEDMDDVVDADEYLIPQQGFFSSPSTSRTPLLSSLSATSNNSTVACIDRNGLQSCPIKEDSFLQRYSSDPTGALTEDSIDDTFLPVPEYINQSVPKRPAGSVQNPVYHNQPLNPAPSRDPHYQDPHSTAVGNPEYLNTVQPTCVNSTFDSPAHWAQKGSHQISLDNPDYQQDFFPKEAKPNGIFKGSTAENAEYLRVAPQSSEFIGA

[11] = molecular target: T1, Epidermal growth factor receptor; assay: Inhibition of human EGFR in human MDA-MB-231 cells assessed as inhibition of phosphorylation ERK1/2 at T202/Y204 of measured after 24 hrs by Western blot analysis; format: cell-based; settings: dose 5-20 µM
[12] = molecular target: T1, Epidermal growth factor receptor; assay: Inhibition of human EGFR in human MDA-MB-231 cells assessed as inhibition of phosphorylation Akt1/2/3 at Ser473 of measured after 24 hrs by Western blot analysis; format: cell-based; settings: dose 5-20 µM
[13] = molecular target: T2, Aldehyde dehydrogenase 1A1 (Homo sapiens, UniProt P00352); assay: Inhibition of ALDH1A1 in human drug-tolerant MDA-MB-231/lapatinib cells assessed as after 24 hrs
T2 sequence (P00352 whole entry): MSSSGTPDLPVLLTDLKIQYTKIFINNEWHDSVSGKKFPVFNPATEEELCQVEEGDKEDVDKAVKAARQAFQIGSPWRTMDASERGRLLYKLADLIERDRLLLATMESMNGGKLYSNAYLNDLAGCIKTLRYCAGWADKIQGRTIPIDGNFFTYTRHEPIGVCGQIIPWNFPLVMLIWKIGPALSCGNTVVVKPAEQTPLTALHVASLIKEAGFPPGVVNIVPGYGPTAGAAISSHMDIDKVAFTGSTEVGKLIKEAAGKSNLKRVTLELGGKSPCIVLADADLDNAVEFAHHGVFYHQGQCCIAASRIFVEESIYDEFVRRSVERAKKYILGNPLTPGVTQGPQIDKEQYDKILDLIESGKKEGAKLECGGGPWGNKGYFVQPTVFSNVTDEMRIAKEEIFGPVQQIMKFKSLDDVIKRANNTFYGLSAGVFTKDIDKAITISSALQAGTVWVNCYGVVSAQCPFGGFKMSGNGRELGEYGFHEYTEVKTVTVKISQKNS

MDA-MB-231 [14] = assay: Inhibition of colony formation in human drug-tolerant MDA-MB-231/lapatinib cells at 5 uM measured after 24 hrs; format: functional
MDA-MB-231 [15] = assay: Inhibition of cell invasion in human MDA-MB-231/lapatinib cells at 20 uM; format: functional
[16] = molecular target: T1, Epidermal growth factor receptor; assay: Inhibition of human EGFR phosphorylation in human drug-tolerant MDA-MB-231/lapatinib cells measured after 24 hrs by Western blot analysis; settings: dose 5-20 µM
[17] = molecular target: T1, Epidermal growth factor receptor; assay: Inhibition of human EGFR phosphorylation in human MDA-MB-231 cells measured after 24 hrs by Western blot analysis; format: cell-based; settings: dose 5-20 µM
[18] = molecular target: T1, Epidermal growth factor receptor; assay: Inhibition of human EGFR in human drug-tolerant MDA-MB-231/lapatinib cells assessed as inhibition of phosphorylation Akt1/2/3 at Ser473 of measured after 24 hrs by Western blot analysis; settings: dose 5-20 µM
[19] = molecular target: T1, Epidermal growth factor receptor; assay: Inhibition of human EGFR in human drug-tolerant MDA-MB-231/lapatinib cells assessed as inhibition of phosphorylation ERK1/2 at T202/Y204 of measured after 24 hrs by Western blot analysis; settings: dose 5-20 µM
MDA-MB-231 [20] = assay: Inhibition of cell stemness in drug-tolerant human MDA-MB-231/lapatinib cells assessed as inhibition of Notch expression at 20 uM after 24 hrs by flow cytometry; format: functional, cell-based
MDA-MB-231 [21] = assay: Inhibition of cell stemness in drug-tolerant human MDA-MB-231/lapatinib cells assessed as inhibition of ALDH1A1 expression at 20 uM after 24 hrs by flow cytometry; format: functional
MDA-MB-231 [22] = assay: Inhibition of cell stemness in drug-tolerant human MDA-MB-231/lapatinib cells assessed as inhibition of Jagged expression at 20 uM after 24 hrs by flow cytometry; format: functional, cell-based
MDA-MB-231 [23] = assay: Antiproliferative activity against drug-tolerant human MDA-MB-231/lapatinib cells assessed as CD44-positive cells measured after 24 hrs by MTT assay; format: functional, cell-based; settings: MDA-MB-231, 24 h
MDA-MB-231 [24] = assay: Antiproliferative activity against drug-tolerant human MDA-MB-231/lapatinib cells assessed as CD44+/CD24- cells measured at 20 uM after 24 hrs by MTT assay; format: functional
MDA-MB-231 [25] = assay: Inhibition of cell stemness in human drug-tolerant MDA-MB-231/lapatinib cells assessed as inhibition of OCT4 expression at 20 uM after 24 hrs by qRT-PCR analysis; format: functional, cell-based
MDA-MB-231 [26] = assay: Inhibition of cell stemness in human drug-tolerant MDA-MB-231/lapatinib cells assessed as inhibition of SOX-2 expression at 20 uM after 24 hrs by qRT-PCR analysis; format: functional, cell-based
MDA-MB-231 [27] = assay: Inhibition of cell stemness in human drug-tolerant MDA-MB-231/lapatinib cells assessed as inhibition of Kif4 expression at 20 uM after 24 hrs by qRT-PCR analysis; format: functional, cell-based
MDA-MB-231 [28] = assay: Inhibition of Wnt/beta-Catenin signaling in drug-tolerant human MDA-MB-231/lapatinib cells assessed as reduction in beta-catenin level at 20 uM incubated for 24 hrs by Western blot analysis
MDA-MB-231 [29] = assay: Inhibition of Wnt/beta-Catenin signaling in drug-tolerant human MDA-MB-231/lapatinib cells assessed as reduction in p-GSK3beta level at 20 uM incubated for 24 hrs by Western blot analysis
MDA-MB-231 [30] = assay: Inhibition of Wnt/beta-Catenin signaling in drug-tolerant human MDA-MB-231/lapatinib cells assessed as reduction in c-Myc mRNA level at 20 uM incubated for 24 hrs by qRT-PCR analysis
MDA-MB-231 [31] = assay: Inhibition of Wnt/beta-Catenin signaling in drug-tolerant human MDA-MB-231/lapatinib cells assessed as reduction in cyclin D1 mRNA level at 20 uM incubated for 24 hrs by qRT-PCR analysis
MDA-MB-231 [32] = assay: Inhibition of Wnt/beta-Catenin signaling in drug-tolerant human MDA-MB-231/lapatinib cells assessed as reduction in MMP7 mRNA level at 20 uM incubated for 24 hrs by qRT-PCR analysis; format: tissue-based
MDA-MB-231 [33] = assay: Inhibition of Wnt/beta-Catenin signaling in drug-tolerant human MDA-MB-231/lapatinib cells assessed as reduction in S100A4 mRNA level at 20 uM incubated for 24 hrs by qRT-PCR analysis
MDA-MB-231 [34] = assay: Inhibition of Wnt/beta-Catenin signaling in drug-tolerant human MDA-MB-231/lapatinib cells assessed as increase in nuclear expression of p-beta-catenin level at 20 uM incubated for 24 hrs by Western blot analysis

Work on CC(OC(=O)CCCC(=O)N(CCS(C)(=O)=O)Cc1ccc(-c2ccc3ncnc(Nc4ccc(OCc5cccc(F)c5)c(Cl)c4)c3c2)o1)c1cc2c(o1)C(=O)c1ccccc1C2=O (stereo unspecified) yielded an IC50 (MCF7) of 3.86 µM, an IC50 (MDA-MB-231 [1]) of 2.04 µM and an IC50 (MDA-MB-231 [2]) of 1.69 µM. For the same compound, the IC50 (HUVEC) was 63.3 µM, the inhibition at 20 µM (MDA-MB-231 [3]) was 2.03% and the “Ratio IC50” value [4] was 0.82. The logP [5] was 2.15, the Activity (MDA-MB-231 [6]) was “Active” and the Activity (MDA-MB-231 [7]) was “Active”. For the same compound, the Activity (MDA-MB-231 [8]) was “Active”, the Activity (MDA-MB-231 [9]) was “Active” and the IC50 [10] was 0.00736 µM. The inhibition [11] was “Active”, the inhibition [12] was “Active” and the IC50 [13] was 0.135 µM. For the same compound, the inhibition at 5 µM (MDA-MB-231 [14]) was 10.9%, the inhibition at 20 µM (MDA-MB-231 [15]) was 77.3% and the inhibition [16] was “Dose-Dependent Effect”. The inhibition [17] was “Dose-Dependent Effect”, the inhibition [18] was “Dose-Dependent Effect” and the inhibition [19] was “Dose-Dependent Effect”. For the same compound, the inhibition (MDA-MB-231 [20]) was “Active”, the inhibition at 20 µM (MDA-MB-231 [21]) was 71.2% and the inhibition (MDA-MB-231 [22]) was “Active”. For the same compound, the IC50 (MDA-MB-231 [23]) was 2.03 µM, the inhibition at 20 µM (MDA-MB-231 [24]) was 52.2% and the inhibition (MDA-MB-231 [25]) was “Active”. For the same compound, the inhibition (MDA-MB-231 [26]) was “Active”, the inhibition (MDA-MB-231 [27]) was “Active” and the inhibition (MDA-MB-231 [28]) was “Active”. The inhibition (MDA-MB-231 [29]) was “Active”, the inhibition (MDA-MB-231 [30]) was “Active” and the inhibition (MDA-MB-231 [31]) was “Active”. The inhibition (MDA-MB-231 [32]) was “Active”, the inhibition (MDA-MB-231 [33]) was “Active” and the inhibition (MDA-MB-231 [34]) was “Active”.
